This is an account of results in ChEMBL document CHEMBL1148264, “Evaluation of series of isobenzofuranone dimers as PKCalpha ligands: implication for the distance between the two ligand binding sites” (Bioorg Med Chem Lett, 2004).

By inhibition is commonly meant the percentage by which the read-out fell short of the control.

The target in experiment [1] is Protein kinase C alpha type (Homo sapiens) (UniProt P17252). The experiment is described as follows: Displacement of [3H]PDBu from protein kinase C alpha at 100 uM; Range 60 to 80.
For experiment [2] the target is unchanged. The experiment is described as follows: Displacement of [3H]PDBu from protein kinase C alpha at 100 uM; Range 80 to 100. Background: Loss of bound radioactivity is the signal in a displacement assay; it reports binding, not function.
Experiment [3] has the same target. Briefly: Displacement of [3H]PDBu from protein kinase C alpha at 100 uM; Range 40 to 60.
For experiment [4] the target is unchanged. Briefly: Displacement of [3H]PDBu from protein kinase C alpha at 100 uM; Range 20 to 40.
Experiment [5] has the same target. The experiment is described as follows: Displacement of [3H]PDBu from protein kinase C alpha at 100 uM; Range 0 to 20.
Experiment [6] shares this target. Briefly: Displacement of [3H]PDBu from protein kinase C alpha at 100 uM; Range 20 to 30.
For experiment [7] the target is unchanged. The experiment is described as follows: Displacement of [3H]PDBu from protein kinase C alpha at 100 uM; Range 2 to 40.

Regarding `CC(=O)OC[C@@]1(CO)OC(=O)c2c(OCCCCCCCCCCCCOc3cccc4c3C(=O)O[C@]4(CO)COC(C)=O)cccc21`, in experiment [1], the inhibition turned out to be 70%.

For the compound `CC(=O)OC[C@@]1(CO)OC(=O)c2c(OCCCCCCCCCCCCCCCOc3cccc4c3C(=O)O[C@]4(CO)COC(C)=O)cccc21`, in experiment [2], the inhibition worked out at 92%.

`CC(=O)OC[C@@]1(CO)OC(=O)c2c(OCCCCCCCCCCCOc3cccc4c3C(=O)O[C@]4(CO)COC(C)=O)cccc21`: the inhibition in experiment [3] was found to be 60%.

`CC(=O)OC[C@@]1(CO)OC(=O)c2c(OCCCCCCCCCCCCCCCCCCCCCCOc3cccc4c3C(=O)O[C@]4(CO)COC(C)=O)cccc21` returned an inhibition in experiment [4] of 25%.

For the compound `CC(=O)OC[C@@]1(CO)OC(=O)c2c(OCCCCCCCCCCCCCCCCOc3cccc4c3C(=O)O[C@]4(CO)COC(C)=O)cccc21`, the inhibition in experiment [2] came to 91%.

Consider `O=C(CCCCC(=O)OC[C@@]1(CO)OC(=O)c2c(OCc3ccccc3)cccc21)CC[C@@]1(CO)OC(=O)c2c(OCc3ccccc3)cccc21`, for which the inhibition in experiment [5] worked out at 18%.

With `O=C(CCCCCCCCCCC(=O)OC[C@@]1(CO)OC(=O)c2c(OCc3ccccc3)cccc21)CC[C@@]1(CO)OC(=O)c2c(OCc3ccccc3)cccc21`, in experiment [1], the inhibition came to 70%.

As to `O=C(CCCCCCCCCCCCC(=O)OC[C@@]1(CO)OC(=O)c2c(OCc3ccccc3)cccc21)CC[C@@]1(CO)OC(=O)c2c(OCc3ccccc3)cccc21`, in experiment [1], the inhibition came to 70%.

As to `CC(=O)OC[C@@]1(CO)OC(=O)c2c(OCCCCCCCCCCCCCCCCCCCCCCCCOc3cccc4c3C(=O)O[C@]4(CO)COC(C)=O)cccc21`, the inhibition in experiment [5] is 19%.

`CC(=O)OC[C@@]1(CO)OC(=O)c2c(OCCCCCCCCCCCCCCOc3cccc4c3C(=O)O[C@]4(CO)COC(C)=O)cccc21` came in with an inhibition in experiment [2] of 90%.

For `O=C(CC[C@@]1(CO)OC(=O)c2c(OCc3ccccc3)cccc21)c1ccc(C(=O)OC[C@@]2(CO)OC(=O)c3c(OCc4ccccc4)cccc32)cc1`, the inhibition in experiment [5] stood at 2%.

As for `O=C(CCCCCCCCCCCCCCC(=O)OC[C@@]1(CO)OC(=O)c2c(OCc3ccccc3)cccc21)CC[C@@]1(CO)OC(=O)c2c(OCc3ccccc3)cccc21`, in experiment [3], the inhibition was 54%.

`CCCCCCCCCCCCOc1cccc2c1C(=O)O[C@]2(CO)COC(C)=O`: in experiment [1], the inhibition amounted to 70%.

As for `O=C(CCCCCCCCCCCCCCCCC(=O)OC[C@@]1(CO)OC(=O)c2c(OCc3ccccc3)cccc21)CC[C@@]1(CO)OC(=O)c2c(OCc3ccccc3)cccc21`, in experiment [6], the inhibition was 30%.

Compound `CC(=O)OC[C@@]1(CO)OC(=O)c2c(OCCCCCCCCCCCCCOc3cccc4c3C(=O)O[C@]4(CO)COC(C)=O)cccc21` returned an inhibition in experiment [2] of 85%.

On to `CCCCCCCCCCCC(=O)OC[C@@]1(CO)OC(=O)c2c(OCc3ccccc3)cccc21`, for which, in experiment [2], the inhibition stood at 90%.

`CC(=O)OC[C@@]1(CO)OC(=O)c2c(OCCCCCCCCCCOc3cccc4c3C(=O)O[C@]4(CO)COC(C)=O)cccc21`: the inhibition in experiment [3] was determined as 45%.

`O=C(CCCCCCCCC(=O)OC[C@@]1(CO)OC(=O)c2c(OCc3ccccc3)cccc21)CC[C@@]1(CO)OC(=O)c2c(OCc3ccccc3)cccc21`: in experiment [3], the inhibition is 41%.

`CC(=O)OC[C@@]1(CO)OC(=O)c2c(OCc3ccccc3)cccc21`: in experiment [7], the inhibition stood at 30%.

`O=C(CC[C@@]1(CO)OC(=O)c2c(OCc3ccccc3)cccc21)c1ccccc1C(=O)OC[C@@]1(CO)OC(=O)c2c(OCc3ccccc3)cccc21` yielded an inhibition in experiment [5] of 4%.

Turning to `CC(=O)OC[C@@]1(CO)OC(=O)c2c(OCCCCCCCCCOc3cccc4c3C(=O)O[C@]4(CO)COC(C)=O)cccc21`, the inhibition in experiment [3] worked out at 42%.

In turn, `O=C(CC[C@@]1(CO)OC(=O)c2c(OCc3ccccc3)cccc21)c1cccc(C(=O)OC[C@@]2(CO)OC(=O)c3c(OCc4ccccc4)cccc32)c1` came in with an inhibition in experiment [5] of 4%.

In experiment [5], `O=C(CCCCCCC(=O)OC[C@@]1(CO)OC(=O)c2c(OCc3ccccc3)cccc21)CC[C@@]1(CO)OC(=O)c2c(OCc3ccccc3)cccc21` displayed an inhibition of 19%.

`O=C(CCCCCCCCCCCCCCCCCCC(=O)OC[C@@]1(CO)OC(=O)c2c(OCc3ccccc3)cccc21)CC[C@@]1(CO)OC(=O)c2c(OCc3ccccc3)cccc21` gave an inhibition in experiment [5] of 10%.
